Reference: patent publication US20120115782A1, “COMPOSITIONS AND METHODS FOR TREATING OR INHIBITING LIVER INJURY” (Yale University, priority 2009, published 2012)

Tests used:
[1] = tested on: APAP induced hepatotoxicity in wild-type mice; assay: Acetaminophen (APAP) induced hepatotoxicity in mice: survival, serum ALT, liver histology; type: in vivo, mouse (C57BL/6)
Experimental: Animals. C57BL/6 mice were purchased from commercial sources. NALP3 −/−, IL-18 −/− ASC −/−, IPAF −/− and TLR9 −/− mice were backcrossed nine generations onto the C57BL/6 background. Caspase 1 −/− mice were backcrossed 5-6 generations onto the C57BL/6 background. These mice have been described previously (39, 40). IL-1β was neutralized in by using the anti-IL-1β antibody from clone B122 (a gift of R. Schreiber, Washington University) at a dose of 0.2 mg/mouse iv twice a day for a total of 48 hours after giving APAP. Control mice received Armenian hamster isotype control antibody. For survival experiments animals were euthanized when they became moribund using criteria of lack of response to stimuli or lack of righting reflex. Animal protocols were approved by the Yale University animal care and use committee. [include references for IPAF−/− (M. Lara-Tejero et al. JEM 2006) and IL-18−/−. Need to add TLR9−/− and TLR3−/−] Acetaminophen induced hepatotoxicity. APAP (Sigma, Mo.) solution was made fresh for each experiment in PBS at 20 mg/ml and heated in a water bath to 55° C. to dissolve. APAP was dosed at 500 mg/kg and injected I.P after 15 hrs of starvation. Animals were euthanized by ketamine/xylazine injection at 12 hours for collection of serum, isolation of liver lymphocytes or collection of liver tissue for histology, or they were observed every four hours for 72 hours until they reached criteria for euthanasia (lack of response to stimuli or lack of righting reflex).
Aspirin/clopidogrel/SC-560. Aspirin (Sigma, Mo.) was made fresh for each experiment. For dosing prior to APAP it was dissolved in single deionized water at 60 mg/l and heated to 42° C. with rapid stirring to dissolve, then rapidly placed in an ice water bath to cool. Aspirin in water was given to the mice 60-72 hours prior to APAP injection. Assuming water consumption of 3-5 ml per day this dose would be equivalent to a 300-500 mg dose in an 80 kg adult human. For co-administration of APAP and aspirin, aspirin was gavaged at a dose of 6 mg/kg in a volume of 100 ul of water immediately after ip injection of APAP. Clopidogrel (Gilead Pharmaceuticals, CA.) was dissolved in PBS at 6 mg/ml and administered by gavage of 100 ul, 30 mg/kg, every 24 hours beginning 48 hours prior and ending 24 hours after APAP injection. Cox-1 inhibitor (SC-560). SC-560 (Cayman chemical, MI) was dissolved at 50 mg/ml in DMSO and further dissolved in PBS in order to gavage a dose of 5 mg/kg in 100 ul. It was administered twice per day beginning 60 hours prior to Tylenol and continued for 48 hours after APAP injection as previously established (41).
Uric Acid Peritonitis. Peritonitis was induced with uric acid crystals as previously described by injecting 3 mg of MSU intraperitoneally per mouse (27). Three hours after injection peritoneal lavage was performed on mice euthanized by isoflurane inhalation. Neutrophil infiltration was evaluated by flow cytometry. The percent of Gr-1 (BD Pharmingen, CA) positive cells was multiplied by the total cell counts. Liver sinusoidal endothelial cell (LSEC) isolation. After in-situ pronase digestion the non-parenchymal cell suspension is centrifuged for 5 min at 100 g to remove most of the parenchymal cells. This process is repeated until no pellet is observed. The supernatant enriched in LSEC is centrifuged for 10 min at 350 g. The pellet is resuspended in PBS and centrifuged for 10 min at 350 g. The cells are resuspended in. PBS and layered (3.3 ml) on the top of two-step percoll gradient (put the 5 ml of 50% percoll at the bottom and put the 6.6 ml of 25% percoll at the top). The gradients are centrifuged at 900 g for 20 min and the intermediate layer included LSEC is collected and cultured in the media (EGM™-2MV—Microvascular Endothelial Cell Medium-2, CAMBREX, Charles City, Iowa). ODN2088 and IRS 954 injection.

NALP3 inflammasome = assay: Uric acid (MSU crystal) peritonitis, model of NALP3 inflammasome activation; type: in vivo; settings: low dose aspirin (60 mg/l) in drinking water three days prior; lavage 3 hours after MSU 3 mg/mouse ip
Experimental: (§1) Uric Acid Peritonitis. Peritonitis was induced with uric acid crystals as previously described by injecting 3 mg of MSU intraperitoneally per mouse (27). Three hours after injection peritoneal lavage was performed on mice euthanized by isoflurane inhalation. Neutrophil infiltration was evaluated by flow cytometry. The percent of Gr-1 (BD Pharmingen, CA) positive cells was multiplied by the total cell counts. Liver sinusoidal endothelial cell (LSEC) isolation. After in-situ pronase digestion the non-parenchymal cell suspension is centrifuged for 5 min at 100 g to remove most of the parenchymal cells. This process is repeated until no pellet is observed. […] TLR9 antagonist (ODN2088, 50 microg×2) or PBS, were injected ip into wild-type mice immediately after and at 6 hours after APAP injection and total mouse liver was obtained 12 hours after APAP injection for quantitative Q-PCR for IL-1β. […] Quantitative Real-time PCR. […] Expression of glyceraldehyde 3-phosphate dehydrogenase was used to standardize the samples, and the results were expressed as a ratio compared with untreated HSCs. Quantitative Real-time PCR for mRNA expression of IL-18, IL-1β, TNF-α and IFN-γ. […] Quantitative real-time PCR (Q-PCR) was performed for IL-18 and IL-1β using commercial primer-probe sets (Applied Biosystems, CA) and the Applied Biosystem 7500 real time PCR system. […]

pro-IL-1β transcript = assay: Q-PCR of whole liver 12 hours after APAP: pro-IL-1β; type: in vivo, mouse; settings: aspirin pre-treatment in drinking water
Experimental: as §1

TNF-α = assay: Q-PCR of whole liver after APAP: TNF-α; type: in vivo, mouse; settings: aspirin treatment
Experimental: as §1

[2] = tested on: THP1 cells (pro-IL-1β transcript); assay: THP1 cells stimulated with LPS, real-time PCR for pro-IL-1β; type: cell-based, human; settings: overnight with aspirin (1.5 mM, 0.15 mM), then LPS 10 μg/ml for 8 hours
Experimental: as §1

[3] = tested on: APAP toxicity in mice and rats; settings: aspirin 200-600 mg/kg; cited from earlier work
pro-IL-18 transcript = assay: Q-PCR of whole liver 12 hours after APAP: pro-IL-18; type: in vivo, mouse; settings: aspirin pre-treatment in drinking water
Experimental: as §1

IL-1β = assay: ELISA for serum IL-1β after APAP; type: in vivo, mouse; settings: ASA in drinking water
IFN-γ = assay: Q-PCR of whole liver after APAP: IFN-γ; type: in vivo, mouse; settings: aspirin treatment
Experimental: as §1

## COc1ccc(-n2nc(C(F)(F)F)cc2-c2ccc(Cl)cc2)cc1 [SC-560]
[1]; SC-560 gavage 5 mg/kg twice daily, from 60 hours prior to 48 hours after APAP
  protection against APAP toxicity (survival): did not protect

## COC(=O)[C@H](c1ccccc1Cl)N1CCc2sccc2C1 [clopidogrel]
[1]; clopidogrel gavage 30 mg/kg every 24 hrs, from 48 hours prior to 24 hours after APAP
  protection against APAP toxicity (survival): did not protect

## CC(=O)Oc1ccccc1C(=O)O [aspirin, acetylsalicylic acid]
[1]; aspirin 60 mg/l in drinking water for 3 days before APAP 500 mg/kg ip, 72 hours
  survival after APAP: markedly improved survival
[1]; aspirin gavaged 6 mg/kg immediately after ip APAP
  survival, aspirin given concordantly with APAP: 43%+/−11%
[1]; aspirin in drinking water three days prior to APAP
  liver histology (H&E) 12 hours after APAP: significant reduction in APAP induced liver injury and hemorrhage
[1]; pre-treatment with aspirin in drinking water
  serum ALT 12 hrs after APAP: significantly lower serum ALT
NALP3 inflammasome
  neutrophil exudates (Gr-1 positive) in MSU peritonitis: eightfold reduction
pro-IL-1β transcript
  increase in pro-IL-1β message by APAP, whole liver: reduced to normal levels
TNF-α
  expression of TNF-α, whole liver after APAP: reduced
[2]
  up-regulation of pro-IL-1β transcript by LPS in THP1 cells: reduced
[3]
  liver injury from APAP: reduce liver injury
  survival from APAP: not improve survival
pro-IL-18 transcript
  increase in pro-IL-18 message by APAP, whole liver: reduced to normal levels
IL-1β
  serum IL-1β levels induced by APAP: significant reduction
IFN-γ
  expression of IFN-γ, whole liver after APAP: reduced
